Results on eleven compounds are retold here after patent EP1433485B1, “Alpha-MSH derived peptides for treating uro-genital conditions” (MSH Pharma, Inc., priority 1999, dated 2009).

The subject of experiment [1] is C. albicans. The experiment in a line: C. albicans germ tube formation induced by horse serum. The class given is cell-based, Candida albicans. The conditions noted are these: peptide 10^-6 M, 60 minutes at 37°C after horse serum induction. As for the experimental part:
C. albicans from stationary phase cultures were washed twice with distilled water and suspended in HBSS to a final concentration of 2 x 10^6/ml. Hyphal growth was induced by addition of 10% inactivated horse serum (GIBCO/ BRL, Paisley, Great Britain) to yeast incubated for 45 minutes at 37°C with continuous shaking. […] The percentage of filamentous cells was evaluated under a light microscope with the aid of a hemocytometer. Experiments were run in triplicates and at least 200 cells were scored. Photomicrographs were taken with a MC100 camera attached to an Axioskop Zeiss microscope.

For experiment [2] the following is noted: rabbit, in vivo; cited from earlier work.
For experiment [3], the system named is C. albicans. Kind of experiment: C. albicans viability estimated from colonies formed. In kind it is cell-based, Candida albicans. The conditions noted are these: Figure 9; ddAdo 25, 50 and 100 x 10^-5 M for two hours, then peptide two additional hours. The procedure: (§1) Clinical isolates of C. albicans were also obtained from the collection of the Department of Microbiology, Ospedale Maggiore di Milano. Cultures of C. albicans were maintained on Sabouraud's agar slants and periodically transferred to Sabouraud's agar plates and incubated for 48 hours at 28°C. To prepare stationary growth-phase yeast, a colony was taken from the agar plate, transferred into 30 ml of Sabouraud-dextrose broth, and incubated for 72 hours at 32°C. Cells were centrifuged at 1000xg for ten minutes, and the pellet was washed twice with distilled water. Cells were counted and suspended in Hank's balanced salt solution ("HBSS") to the desired concentration.
(§2) Cells were then washed in cold distilled water and diluted with HBSS to a concentration of 100 organisms/ml. One-milliliter aliquots were then dispensed on blood agar plates and incubated for 48 hours at 37°C. The organism's viability was estimated from the number of colonies formed.
(§3) The reactions were stopped after three minutes by the addition of ice cold ethanol. cAMP levels were measured in duplicates using a commercial enzyme immunoassay kit (Amersham, United Kingdom) after extraction-via the liquid-phase method according to the manufacturer's instructions. […] The effects of forskolin and ddAdo on the ability of C. albicans to form colonies were determined according to the procedures described in Example II.

For the next experiment, the system named is S. aureus (ATCC 29213). The experiment in a line: S. aureus viability estimated from colonies formed. The note with it: Figure 1; two hours at 37°C; significant with peptide concentrations of 10^-12 to 10^-4 M. The class given is cell-based, Staphylococcus aureus. The procedure: (§4) Cultures of S. aureus (ATCC 29213) were obtained from the collection of the Department of Microbiology, Ospedale Maggiore di Milano. […] Cells were then washed in cold distilled water and diluted with HBSS to a concentration of 100 organisms/ml. One-milliliter aliquots were dispensed on blood agar plates and incubated for 24 hours at 37°C. Viability of the microorganisms was estimated from the colonies formed. In another set of experiments, 500 units of urokinase, a S. aureus growth enhancer, were also incubated with the bacteria (10^5/100ml) for four hours at 37°C in a shaking water bath together with the peptides.

For experiment [4], the system named is C. albicans. The conditions noted are these: for ability of C albicans to form colony: Figure 3, 10^-12 to 10^-4 M, p<0.01 vs. control; for C. albicans viability: Figure 4, procedures of Example II. The procedure: as §1, §2, §3
The test system of the next experiment is NF-κB. Kind of experiment: NF-κB binding activity in nuclear extracts of U1 cells (gel shift). In kind it is cell-based, human. As for the experimental part:
For the determination of specific bands, nuclear extracts were first incubated with 100 fold excess unlabeled probe for five minutes, before incubation with a labeled probe. […] The gels were dried and autoradiographed.

Experiment [5] relates to C. albicans. Kind of experiment: killing of opsonized C. albicans by human neutrophils. In kind it is cell-based, Candida albicans. The conditions noted are these: Figure 6; 10^-12 to 10^-4 M; p<0.01. As for the experimental part:
Venous blood (20 ml) from healthy volunteers was anticoagulated with heparin. Neutrophils were then isolated using dextran sedimentation and centrifugation with Ficoll-Hypaque (Sigma Chemical Co., St. Louis, Missouri, USA). Erythrocytes were lysed via hypotonic shock with the resulting neutrophils representing at least 97% of the cell suspension. Cell viability; estimated by trypan blue exclusion, was greater than 98%. Neutrophils were resuspended in HBSS for the experiments. […] ID. NO. 4)or α-MSH (11-13) (SEQ. ID. […] After incubation, the culture tubes were placed on ice to stop growth, and extracellular organisms were washed twice with centrifugation at 1000-x g at 4°C. A 2.5% sodium deoxycholate solution was added to the suspension, and the tubes were shaken for five minutes. Cold distilled water was then added to obtain a suspension of 10^6 cells/ml. Two 1/100 serial dilution in HBSS were made to obtain a final suspension of 100 cells/ml. One-milliliter aliquots were then dispensed on blood agar plates and incubated for 48 hours at 37°C. Colony forming units were counted at the end of the incubation period with experiments running in triplicates and repeated using blood from five different donors.

For the next experiment, the system named is HIV-1 RNA. Kind of experiment: Northern Blot analysis of HIV-1 RNA in PMA stimulated U1 cells. The note with it: Figure 12. The class given is cell-based.
The subject of another experiment is S. aureus. Kind of experiment: urokinase induced growth of S. aureus. In kind it is cell-based, Staphylococcus aureus. The note with it: Figure 2; peptide 10^-6M; 500 units of urokinase, four hours at 37°C. As for the experimental part: as §4
The test system of another experiment is HIV-1. The note with it: Figure 11; 10^-5M; induced by IL-6, IL-10, PMA and in crowding condition. The text has this: Chronically HIV-1 infected promonocytic U1 cell line is an in vitro model of latent HIV infection in monocytes. These cells carry two integrated proviral copies of HIV, and constitutive expression of HIV is very low. Viral replication, however, as measured by RNA transcription , p24 antigen, or reverse transcriptase release, can be activated with different stimuli such as TNF-α, IL-6, IL-10, PMA or crowding of cells.
Crowding was achieved by seeding U 1 cells at a density of 2x10^5/ml and maintaining them in culture at 37°C in 5% CO2 without changing media for seven days. Cultures activated with cytokines or PMA were maintained for only 48 hours. Supernatants were then removed by centrifugation and assayed for p24 antigen using commercially available ELISA kits from Cellular Products, Inc. in Buffalo, NY, USA. Reverse transcriptase releases were also measured using a commercially available kit, ELISA Retrosys RT assay from Innovagen, Lund, Sweden.

Experiment [6] deals with C. albicans. The experiment in a line: cAMP content of permeabilized C. albicans (enzyme immunoassay). In kind it is cell-based, Candida albicans. The note with it: Figure 7; 10^-6 M, three minutes; same order of magnitude as equimolar forskolin. The procedure: ID. NO. 4), (11-13) (SEQ. ID. NO. 1), or forskolin, an agent known to increase intracellular cAMP. The reactions were stopped after three minutes by the addition of ice cold ethanol. cAMP levels were measured in duplicates using a commercial enzyme immunoassay kit (Amersham, United Kingdom) after extraction-via the liquid-phase method according to the manufacturer's instructions.

Bridge positions count the residues as written; N and C are the ends. Peptide text beside a SMILES is read from it. I, II: the chains in the order shown.

As to `CC(=O)N[C@@H](Cc1c[nH]cn1)C(=O)N[C@@H](Cc1ccccc1)C(=O)N[C@@H](CCCNC(=N)N)C(=O)N[C@@H](Cc1c[nH]c2ccccc12)C(=O)NCC(=O)N[C@@H](CCCCN)C(=O)N1CCC[C@H]1C(=O)N[C@H](C(N)=O)C(C)C` [α-MSH (6-13)] (Ac-HFRWGKPV-NH2), the “reduction in the number of filamentous cells” value in the experiment with C. albicans [1] is listed as “approximately 50%”.
“9-13 sequence: α-MSH 9-13 sequence (WGKPV)”: the “antipyretic potency relative to the 11-13 sequence” value in experiment [2] is recorded as “almost devoid of activity”.
For `C[C@H]1O[C@@H](n2cnc3c(N)ncnc32)C[C@@H]1O` [ddAdo, dideoxyadenosine], in the experiment on C. albicans [3], the “effect of ddAdo on the growth inhibition of C. albicans by α-MSH (1-13) and (11-13)” value is given as “reverse the effect”.
For `CC(=O)N[C@@H](CSSC[C@H](NC(C)=O)C(=O)N[C@@H](CCCCN)C(=O)N1CCC[C@H]1C(=O)N[C@H](C(N)=O)C(C)C)C(=O)N[C@@H](CCCCN)C(=O)N1CCC[C@H]1C(=O)N[C@H](C(N)=O)C(C)C` [KPV dimer] (I: Ac-CKPV-NH2 / II: Ac-CKPV-NH2; disulfide I:1-II:1), the “S. aureus colony formation” value in the experiment with S. aureus (ATCC 29213) is on record as “inhibited S. aureus colony formation”. Also, the “ability of C albicans to form colony” value in the experiment with C. albicans [4] was “greatly reduced the ability of C albicans to form colony”.
As to [Nle^4,D-Phe^7]- α-MSH, the “potency in reducing fever relative to the parent peptide” value in experiment [2] is recorded as “approximately ten times more potent”.
`CC(=O)N[C@@H](CCCCN)C(=O)N1CCC[C@H]1C(=O)N[C@H](C(N)=O)C(C)C` [α-MSH (11-13), KPV] (Ac-Lys-Pro-Val-NH2): the NF-κB activation result is listed as “significantly reduced NF-κB activation” in the experiment with NF-κB (Figure 14, TNF-α (20ng/ml) stimulated U1 cells, four hours, peptide 10^-5 M) and “did not alter NF-κB activation” in the experiment on NF-κB (resting cells). The “neutrophil killing of C. albicans” value in the experiment on C. albicans [5] is “enhanced neutrophil killing of C. albicans”. The “transcription of both spliced and unspliced HIV-1 RNA” value in the experiment with HIV-1 RNA was “inhibited”. In addition, the “growth enhancing effect of urokinase on S. aureus” value in the experiment with S. aureus is given as “significantly countered the growth enhancing effect of urokinase”. The “reverse transcriptase release from U1 cells” value in the experiment with HIV-1 is reported as “inhibited”. For the same compound, in the experiment with S. aureus (ATCC 29213), the “S. aureus colony formation” value is “inhibited S. aureus colony formation”. Moreover, the “reduction in the number of filamentous cells” value in the experiment on C. albicans [1] is recorded as 54-58%. Also, the “ability of C albicans to form colony” value in the experiment with C. albicans [4] is “greatly reduced the ability of C albicans to form colony”. For the same compound, the “growth of C. albicans” value in the experiment with C. albicans [4] (Figure 8, relative to control, p<0.01) is “significantly inhibited the growth of C. albicans”. Moreover, the “cAMP content in the C. albicans” value in the experiment on C. albicans [6] is “enhanced cAMP content”.
On to “ACTH (1-39): adrenocorticotropic hormone (1-39), prepared by solid-phase peptide synthesis (SYSMEHFRWGKPVGKKRRPVKVYPNGAEDESAEAFPLEF; Corticotropin; UniProt P01189 138-176, looked up) [reference compound]”, for which the C. albicans viability result in the experiment on C. albicans [4] is given as “did not reduce C. albicans viability”.
Turning to “8-13 sequence: α-MSH 8-13 sequence (RWGKPV)”, the “antipyretic potency relative to the 11-13 sequence” value in experiment [2] is “greater than that of the 11-13 sequence”.
“10-13 sequence: α-MSH(11-13) with addition of glycine to form the 10-13 sequence (GKPV)”: the “antipyretic potency relative to the 11-13 sequence” value in [2] is on record as “slightly decreased potency”.
Take `CSCC[C@H](NC(C)=O)C(=O)N[C@@H](CCC(=O)O)C(=O)N[C@@H](Cc1c[nH]cn1)C(=O)N[C@@H](Cc1ccccc1)C(=O)N[C@@H](CCCNC(=N)N)C(=O)N[C@@H](Cc1c[nH]c2ccccc12)C(=O)NCC(N)=O` [α-MSH (4-10), MEHFRWG]: the “inhibition of colony forming units (CFU)” value in the experiment on C. albicans [4] (48 h) is “approximately 50%”.
Take “ACTH (18-39): ACTH fragment (18-39) (CLIP) [reference compound]”: the C. albicans viability result with C. albicans [4] is on record as “did not reduce C. albicans viability”.
